Key:
Conditions in all cases: 72 h
HCC1143 [1] = tested on: HCC1143
Procedure, shortened: (§1)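 The reported EC50 was fitted from percent-inhibition dose-response curves and censored at the highest concentration. Breast cancer cell lines (20 µl suspension) were added to 384-well plates containing compound in 5 µl medium and incubated 72 h, and viability was read with 2.5 µl CellTiter-Blue over 2 h at 37 °C at 560/590 nm. Each plate was normalised to vehicle and a positive kill control and checked by Z'-factor, and rows with zero drug sensitivity score were dropped.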

BT-474 [2] = tested on: BT-474
Procedure, shortened: as §1

MDA-MB-468 [3] = tested on: MDA-MB-468
Procedure, shortened: as §1

BT-549 [4] = tested on: BT-549
Procedure, shortened: as §1

Hs578T [5] = tested on: Hs578T
Procedure, shortened: as §1

HCC1937 [6] = tested on: HCC1937
Procedure, shortened: as §1

SK-BR-3 [7] = tested on: SK-BR-3
Procedure, shortened: as §1

MDA-MB-436 [8] = tested on: MDA-MB-436
Procedure, shortened: as §1

MFM-223 [9] = tested on: MFM-223
Procedure, shortened: as §1

CAL-120 [10] = tested on: CAL-120
Procedure, shortened: as §1

MDA-MB-231 [11] = tested on: MDA-MB-231
Procedure, shortened: as §1

MDA-MB-453 = tested on: MDA-MB-453
Procedure, shortened: (§2)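 EC50 was fitted from dose-response curves and censored at the highest concentration tested. To build those curves, breast cancer cell lines (20 µl suspension) were seeded into 384-well plates containing compound at 5 concentrations in 10-fold steps over a compound-specific 10,000-fold range and incubated for 72 h. Readouts were CellTox Green fluorescence (485/520 nm) for cell death and then CellTiter-Glo luminescence for viability, with each plate normalised to 0.1 % DMSO and a positive kill control.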

HCC1143 [12] = tested on: HCC1143; remark: listed apart in the source
Procedure, shortened: as §2

BT-474 [13] = tested on: BT-474; remark: listed apart in the source
Procedure, shortened: as §2

DU-4475 = tested on: DU-4475
Procedure, shortened: as §2

CAL-51 = tested on: CAL-51
Procedure, shortened: as §2

BT-549 [14] = tested on: BT-549; remark: listed apart in the source
Procedure, shortened: as §2

Hs578T [15] = tested on: Hs578T; remark: listed apart in the source
Procedure, shortened: as §2

HCC1937 [16] = tested on: HCC1937; remark: listed apart in the source
Procedure, shortened: as §2

CAL-85-1 [17] = tested on: CAL-85-1
Procedure, shortened: as §2

SK-BR-3 [18] = tested on: SK-BR-3; remark: listed apart in the source
Procedure, shortened: as §2

HCC1599 = tested on: HCC1599
Procedure, shortened: as §2

MDA-MB-436 [19] = tested on: MDA-MB-436; remark: listed apart in the source
Procedure, shortened: as §2

MFM-223 [20] = tested on: MFM-223; remark: listed apart in the source
Procedure, shortened: as §2

CAL-120 [21] = tested on: CAL-120; remark: listed apart in the source
Procedure, shortened: as §2

HDQ-P1 = tested on: HDQ-P1
Procedure, shortened: as §2

MDA-MB-231 [22] = tested on: MDA-MB-231; remark: listed apart in the source
Procedure, shortened: as §2

MDA-MB-468 [23] = tested on: MDA-MB-468; remark: listed apart in the source
Description: (§3)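 Drug sensitivity and resistance testing (DSRT) of breast cancer cell lines in 384-well plates, 5 concentrations in 10-fold dilutions over a compound-specific 10,000-fold range. After 72 h, cytotoxicity was read by CellTox Green fluorescence and viability by CellTiter-Glo luminescence (multiplexed), normalised to DMSO and benzethonium chloride controls. EC50 is the inflection point of the fitted dose-response curve (bottom asymptote free, so it can be relative for partial curves) and is censored at the highest tested concentration. Rows with DSS 0 (no meaningful response) were excluded.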

Hs578T [24] = tested on: Hs578T; remark: listed apart in the source
Description: as §3

CAL-85-1 [25] = tested on: CAL-85-1; remark: listed apart in the source
Description: as §3

MFM-223 [26] = tested on: MFM-223; remark: listed apart in the source
Description: as §3

CAL-148 = tested on: CAL-148
Procedure, shortened: as §1

Compound: O=C(Nc1ccncc1)C(=O)c1cn(Cc2ccc(Cl)cc2)c2ccccc12 [Indibulin]
- EC50, CellTiter-Blue viability (HCC1143 [1]): 46.9 nM
- EC50, CellTiter-Blue viability (BT-474 [2]): 31.3 nM
- EC50, CellTiter-Blue viability (MDA-MB-468 [3]): 61.8 nM
- EC50, CellTiter-Blue viability (BT-549 [4]): 135 nM
- EC50, CellTiter-Blue viability (Hs578T [5]): 938 nM
- EC50, CellTiter-Blue viability (HCC1937 [6]): 18.1 nM
- EC50, CellTiter-Blue viability (SK-BR-3 [7]): 26.1 nM
- EC50, CellTiter-Blue viability (MDA-MB-436 [8]): 64.5 nM
- EC50, CellTiter-Blue viability (MFM-223 [9]): 377 nM
- EC50, CellTiter-Blue viability (CAL-120 [10]): 22.4 nM
- EC50, CellTiter-Blue viability (MDA-MB-231 [11]): 87.2 nM
- EC50, CellTiter-Glo (MDA-MB-453): 164 nM
- EC50, CellTiter-Glo (HCC1143 [12]): 754 nM
- EC50, CellTiter-Glo (BT-474 [13]): 282 nM
- EC50, CellTiter-Glo (DU-4475): 3810 nM
- EC50, CellTiter-Glo (CAL-51): 165 nM
- EC50, CellTiter-Glo (BT-549 [14]): 185 nM
- EC50, CellTiter-Glo (Hs578T [15]): 482 nM
- EC50, CellTiter-Glo (HCC1937 [16]): 245 nM
- EC50, CellTiter-Glo (CAL-85-1 [17]): 169 nM
- EC50, CellTiter-Glo (SK-BR-3 [18]): 355 nM
- EC50, CellTiter-Glo (HCC1599): 129 nM
- EC50, CellTiter-Glo (MDA-MB-436 [19]): 203 nM
- EC50, CellTiter-Glo (MFM-223 [20]): 280 nM
- EC50, CellTiter-Glo (CAL-120 [21]): 408 nM
- EC50, CellTiter-Glo (HDQ-P1): 523 nM
- EC50, CellTiter-Glo (MDA-MB-231 [22]): 1040 nM
- EC50, CellTox Green (MDA-MB-468 [23]): 1640 nM
- EC50, CellTox Green (Hs578T [24]): 3450 nM
- EC50, CellTox Green (CAL-85-1 [25]): 858 nM
- EC50, CellTox Green (MFM-223 [26]): 395 nM
- EC50, CellTiter-Blue viability (CAL-148): 5000 nM

Reference: the supplement of paper PMC4862054
